Test results as given in patent US20190223443A1, “Methods to Increase Corn Growth” (Valent BioSciences LLC, priority 2015, published 2019).

Test system: corn hybrid B73 X Mo17
Experiment: Greenhouse study Long Grove, Ill., sprayed at V1-V2, change in height and synergy (Example 7)
Type: in vivo
Conditions: for Change in height from day of treatment, 2 days post treatment: control 9.74; for Change in height from day of treatment, 4 days post treatment: control 22.59; for Change in height from day of treatment, 6 days post treatment: control 43.03
Description: A greenhouse study was conducted at Long Grove, Ill. Seeds of the corn hybrid B73 X Mo17 was sown into potted soil on May 7, 2014. Plants were sprayed at 11 days post sowing (V1-V2) with solutions containing a non-ionic surfactant (0.25%, v/v) and growth was followed for 6 days. GA3 refers to gibberellic acid and ABA refers to abscisic acid. Results of the study described in 3. above can be seen in the following tables describing change in height in centimeters from day of treatment (Table 8) and change in height in centimeters from day of treatment compared to control (Table 9).
Synergy is calculated as follows: […]
Observed difference in height from control/Expected difference in height from control, where expected difference in height from control is the sum of the observed difference in height of each active ingredient applied alone. If the ratio between the experimentally observed efficacy of the mixture and the expected efficacy of the mixture is greater than 1, than synergistic interactions are present in the mixture.

Structure (SMILES): CC1=CC(=O)CC(C)(C)[C@@]1(O)/C=C/C(C)=C\C(=O)O [ABA, abscisic acid]
- Observed change in height from day of treatment compared to control, 2 days post treatment (ABA 8.6 ppm alone): −0.17 cm
- Observed change in height from day of treatment compared to control, 4 days post treatment (ABA 8.6 ppm alone): −0.72 cm
- Observed change in height from day of treatment compared to control, 6 days post treatment (ABA 8.6 ppm alone): −1.37 cm
- Change in height from day of treatment, 2 days post treatment (ABA 8.6 ppm alone): 9.57 cm
- Change in height from day of treatment, 4 days post treatment (ABA 8.6 ppm alone): 21.87 cm
- Change in height from day of treatment, 6 days post treatment (ABA 8.6 ppm alone): 41.66 cm
- Observed change in height from day of treatment compared to control, 2 days post treatment (ABA 10 ppm alone): −0.11 cm
- Observed change in height from day of treatment compared to control, 4 days post treatment (ABA 10 ppm alone): −0.15 cm
- Observed change in height from day of treatment compared to control, 6 days post treatment (ABA 10 ppm alone): −0.33 cm
- Change in height from day of treatment, 2 days post treatment (ABA 10 ppm alone): 9.63 cm
- Change in height from day of treatment, 4 days post treatment (ABA 10 ppm alone): 22.44 cm
- Change in height from day of treatment, 6 days post treatment (ABA 10 ppm alone): 42.70 cm
- Observed change in height from day of treatment compared to control, 2 days post treatment (ABA 12 ppm alone): 0.75 cm
- Observed change in height from day of treatment compared to control, 4 days post treatment (ABA 12 ppm alone): −0.49 cm
- Observed change in height from day of treatment compared to control, 6 days post treatment (ABA 12 ppm alone): 0 cm
- Change in height from day of treatment, 2 days post treatment (ABA 12 ppm alone): 10.49 cm
- Change in height from day of treatment, 4 days post treatment (ABA 12 ppm alone): 22.10 cm
- Change in height from day of treatment, 6 days post treatment (ABA 12 ppm alone): 43.03 cm
- Height of the corn compared to the control (in words) (applied alone, at both 4 and 6 days post treatment): either did not increase or decreased the height
